Assay results from patent US8158828B2, “Nuclear receptor binding agents” (priority 2005, dated 2012).
“Also recorded” adds a separate entry of the source.

Key:
PC-3 cells = experiment: Androgen independent prostate cancer cell growth; assay type: cell-based; conditions: for PC-3 cell growth inhibition: 72 hrs; for PC-3 growth inhibition, qualitative grading: in vitro, data not shown
Description: PC-3 cells were plated in RPMI+10% csFBS at 6000 cells per well of a 96 well plate. Medium was changed to RPMI+1% csFBS without phenol red and then treated for 72 hrs with increasing concentrations of SERMs.
The prostate cancer cell line PC-3 was plated in RPMI+10% csFBS at 6000 cells per well of a 96 well plate. Medium was changed to RPMI+1% csFBS without phenol red and cells were treated for 72 hrs with increasing concentrations of SERMs.
PC-3 growth inhibition was determined qualitatively, in vitro, and represented as a grading system based on the ability of the SERMs to inhibit growth. The number −4 is for compounds that induced 100% growth inhibition at 1 uM, −3 for compounds that inhibit growth by about 75-90%, −2 for about 50-70% and −1 for inhibition less than 50% growth.

ER-β = biological target: T1, ER-β (Rattus norvegicus, UniProt Q62986); experiment: ER-β transactivation, ERE-LUC in COS or 293 cells; assay type: cell-based; set-up: % estardiol activity, ER-β: dose or concentration left out as unconfirmed; conditions: for ER-β LUC expression, compound alone / inhibition of E2-stimulated LUC expression, ER-β: COS or 293 cells; for inhibition of E2-stimulated LUC expression, ER-β: with E2
T1 construct: expressed in transfected cells; host or cells: COS or 293 cells

uterus = experiment: In vivo estrogenic activity, uterine weight; set-up: species or system rat; conditions: female rats; for estrogenic activity in terms of uterine weight: compound alone
Description: Rats that were administered the vehicle alone served as controls.

[1] = test system: TRAP positive multinucleated osteoclasts; experiment: TRAP positive multinucleated osteoclasts from bone marrow cells; assay type: cell-based, rat; conditions: RANKL and GMCSF, 12 days
Description: FIG. 7: Effect of the indicated compounds on TRAP positive multinucleated osteoclasts. Bone marrow cells from rat femur was cultured in Alpha MEM+10% csFBS without phenol red in the presence or absence of 30 ng/ml RANKL and 10 ng/ml GMCSF. The cells were treated for 12 days and were stained for tartarate resistant acid phosphatase activity (TRAP) and multinucleated osteoclasts were counted.
Bone marrow cells isolated from rat femur were cultured in Alpha MEM without phenol red+10% sterile FBS without phenol red in the presence or absence of […] RANKL and 10 ng/ml GMCSF. The cells were treated for 12 days were stained for tartarate resistant acid phosphatase activity (TRAP) positive multinucleated osteoclasts and were counted.

[2] = Metabolic stability in human liver microsomes; conditions: 1 μM substrate, 0.5 mg/mL microsomes
Description: Each substrate or reference control was dissolved at a concentration of 10 mM in DMSO, from which a 5 μM spiking solution was prepared by dilution in water. Substrates (1 μM) were incubated in the presence of human liver microsomes (Xenotech LLC, Kansas City Mo.) at 0.5 mg/mL fortified with an NADPH regenerating system at 37° C. and pH 7.4. The NADPH regenerating system consisted of glucose-6-phosphate dehydrogenase (1 units/mL) in 0.05M K2HPO4. Duplicate incubations were performed in 96-well polypropylene cluster tubes in a final volume of 250 μL per reaction. At 0, 2, 4, 6, 10, 30, and 60 minutes a stop solution (300 μL acetonitrile) was added to aliquots of the reaction mixture. Precipitated protein was removed by centrifugation (3000 rpm for 15 minutes) and the supernatants were transferred to clean 96-well plates for analysis.
The samples were injected onto a Phenomenex Luna hexylphenyl 50×2 mm i.d. 5 uM, column fitted with a guard column. An isocratic mobile phase consisting of 50% acetonitrile and 0.1% formic acid in water was used at a flow rate of 0.3 mL/min. The protonated molecular ion (M+H)^+ of the analyte was monitored by MDS/Sciex API 4000QTrap triple quadrupole mass spectrometer using electrospray positive mode ionization with a temperature of 500° C. and a spray voltage of 4000V. Total analysis time was 1.5 min per sample.
Metabolic stability was defined as the amount of substrate metabolized by the incubation with hepatic microsomes and expressed as a percentage of the initial amount of substrate (% remaining) based on peak area. Initial substrate concentration for each analyte was 1 μM. The initial peak area of each substrate was determined at time zero and metabolic stability was assessed based on the change in analyte peak area from time 0 min to a single fixed timepoint for each sample (2-60 min, representative timepoints are shown in Table 2 below).

T1 sequence (Q62986 whole entry): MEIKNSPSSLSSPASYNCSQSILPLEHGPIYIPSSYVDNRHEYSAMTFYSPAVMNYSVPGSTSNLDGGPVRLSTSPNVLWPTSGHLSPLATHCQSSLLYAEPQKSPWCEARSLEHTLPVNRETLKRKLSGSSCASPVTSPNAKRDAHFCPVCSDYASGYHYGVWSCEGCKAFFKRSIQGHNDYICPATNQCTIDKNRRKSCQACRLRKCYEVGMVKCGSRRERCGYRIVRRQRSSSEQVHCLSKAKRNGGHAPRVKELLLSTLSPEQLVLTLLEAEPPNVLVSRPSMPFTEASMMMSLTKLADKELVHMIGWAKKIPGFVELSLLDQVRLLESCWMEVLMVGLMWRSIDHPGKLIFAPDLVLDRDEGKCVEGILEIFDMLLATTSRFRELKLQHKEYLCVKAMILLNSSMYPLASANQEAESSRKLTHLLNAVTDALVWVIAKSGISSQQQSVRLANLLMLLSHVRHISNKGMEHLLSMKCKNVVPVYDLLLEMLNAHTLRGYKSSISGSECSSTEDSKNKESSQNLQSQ

Row | SMILES | PC-3 cell growth inhibition (PC-3 cells; concentration not given) | PC-3 growth inhibition, qualitative grading (PC-3 cells) | ER-β LUC expression, compound alone (ER-β) | inhibition of E2-stimulated LUC expression, ER-β (ER-β) | estrogenic activity in terms of uterine weight (uterus) | uterine weight increase, with ICI-182,780 (uterus; with ICI-182,780) | uterine weight, coadministered with estrogen (uterus; with estrogen) | osteoclast differentiation / osteoclast activity [1] | % Remaining 0 min [2] | % Remaining 10 min [2] | % Remaining 30 min [2] | % Remaining 60 min [2] | PC-3 cell growth inhibition (PC-3 cells; 1 μM) | % estardiol activity, ER-β (ER-β) | osteoclast differentiation / osteoclast activity ([1]; hydrochloride)
1 | O=C(c1ccccc1)N(c1ccc(O)cc1)c1ccc(OCCN2CCCCC2)cc1 [Compound 4a, N-(4-hydroxyphenyl)-N-[4-(2-piperidin-1-ylethoxy)-phenyl]-benzamide] | about 50% | −1 (−1 for inhibition less than 50% growth) | neither 4a nor 4h stimulated LUC expression | inhibited E2-stimulated LUC expression | exhibited estrogenic activity, in terms of increased uterine weight; also recorded: exhibited estrogenic activity, in vivo | ICI-182,780 reversed 4a and 4g effects on uterine weight increase | an increase in uterine weight was observed | minimally but dose-dependently suppressed the osteoclast differentiation | 100% | 105% | 95% | 74% |  |  | 
2 | Cl.O=C(c1ccc(F)cc1)N(c1ccc(O)cc1)c1ccc(OCCN2CCCCC2)cc1 [Compound 4h, N-(4-hydroxyphenyl)-N-[4-(2-piperidin-1-ylethoxy)-phenyl]-4-fluroro-benzamide hydrochloride] |  | −2 (−2 for about 50-70%) | neither 4a nor 4h stimulated LUC expression | inhibited E2-stimulated LUC expression | exhibited no estrogenic, or anti-estrogenic activity in uterus |  |  |  | 100% | 99% | 86% | 70% | 75% | 29.1% | minimally but dose-dependently suppressed the osteoclast differentiation; also recorded: highly suppressive of osteoclast activity
